Results from patent US20040086901A1, “Database for analyzing gene function and method of analyzing gene function by dspa” (priority 2000, published 2004).

Key:
Assay type in all cases: cell-based, mouse
[1] = test system: NIH3T3 cells overexpressing coup; experiment: MTT cell viability, coup overexpressing cells vs parental line; settings: coup high-expressing cells / parental cell line, 3 to 4 days
Procedure: (§1) With regard to the function-known genes, the genes shown in the left column of Table 2 were used. With regard to the drugs, those shown in Table 1 were dissolved in DMSO to an extent of 100-fold of the maximum concentration for the search of the drugs and used. With regard to the cells, incubated NIH3T3 or ras-NIH3T3 cells were used.
(§2) Full-length cDNA of each function-known genes was incorporated into an expression vector (pRc-CMV, etc.) and transfected into NIH3T3 cells by a common method. Transformed cells were isolated using the resistance to G-418 as an index and the expression of the transfected gene in each cell was investigated by Western blotting method to select a highly expressing line.
(§3) Cell viabilities were measured according to the following procedures.
(§4) 1) From the 2nd to the 11th rows of a 96-well plate were filled with DMEM (50 μl). The 12th row was filled with 100 μl of DMEM.
(§5) 2) The 1st row was filled with 98 μl of DMEM.
(§6) 3) Drugs (2 μl each) were added into the 1st row.
(§7) 4) Continuous double-dilution was conducted from the 1st to the 9th rows. Fifty μl were taken out from the 9th row and discarded. The plate was preserved in a CO2 incubator.
(§8) 5) Cells (each high-expressing cells and the parental cell line) were detached from the medium using a trypsin solution, suspended in 10% CS-DMEM and transferred to a test tube and cell numbers (cell/ml) were counted.
(§9) 6) The cells were diluted to a concentration of 1×10^5 cells/ml, and 50 μl of the cell suspension were added to the 1st to the 11th rows of the plate followed by gently stirring.
(§10) 7) The plate was transferred to the CO2 incubator and incubated for 3 to 4 days.
(§11) 8) MTT (5 mg/ml in PBS) (10 μl) was added to the 1st to the 12th rows of the plate and incubated in the CO2 incubator at 37° C. for 4 hours.
(§12) 9) A reaction stop solution (0.04N HCl in isopropanol) (150 μl) was added followed by mixing well and being allowed to stand at room temperature for about 2 hours.
(§13) 10) Coloration of formazan which was a metabolite of the MTT dye was measured using a microplate reader. The measurement wavelength was 574 nm and the reference wavelength was 655 nm. The 10th and the 11th rows of the plate were 100% controls and the 12th row was a 0% control.
(§14) As an index for the sensitivity of highly gene-expressing cells and the parental cell line to various drugs, each of the IC40 values thereof was specified and ratios of the IC40 values were calculated. FIG. 2 and FIG. 3 are the examples where ratios of IC40 values were calculated from a curve showing the dependency on the concentration of the chemical versus the viability. After that, logarithmic values of ratios of IC40 values were calculated from each gene.

[2] = test system: NIH3T3 cells overexpressing CP-antisense; experiment: MTT cell viability, CP-antisense cells vs parental line; settings: 3 to 4 days
Procedure: as §1, §2, §3, §4, §5, §6, §7, §8, §9, §10, §11, §12, §13, §14

[3] = test system: NIH3T3 cells overexpressing CBP8; experiment: MTT cell viability, CBP8 overexpressing cells vs parental line; settings: CBP8 high-expressing cells / parental cell line, 3 to 4 days
Procedure: as §1, §2, §3, §4, §5, §6, §7, §8, §9, §10, §11, §12, §13, §14

[4] = test system: NIH3T3 cells overexpressing PDGF-R; experiment: MTT cell viability, PDGF-R overexpressing cells vs parental line; settings: PDGF-R high-expressing cells / parental cell line, 3 to 4 days
Procedure: as §1, §2, §3, §4, §5, §6, §7, §8, §9, §10, §11, §12, §13, §14

[5] = test system: NIH3T3 cells overexpressing erbB2; experiment: MTT cell viability, erbB2 overexpressing cells vs parental line; settings: erbB2 high-expressing cells / parental cell line, 3 to 4 days
Procedure: as §1, §2, §3, §4, §5, §6, §7, §8, §9, §10, §11, §12, §13, §14

[6] = test system: NIH3T3 cells overexpressing CaMKIIa; experiment: MTT cell viability, CaMKIIa overexpressing cells vs parental line; settings: CaMKIIa high-expressing cells / parental cell line, 3 to 4 days
Procedure: as §1, §2, §3, §4, §5, §6, §7, §8, §9, §10, §11, §12, §13
(§15) As an index for the sensitivity of highly gene-expressing cells and the parental cell line to various drugs, each of the IC40 values thereof was specified and ratios of the IC40 values were calculated. […] After that, logarithmic values of ratios of IC40 values were calculated from each gene.

[7] = test system: NIH3T3 cells overexpressing STAT1; experiment: MTT cell viability, STAT1 overexpressing cells vs parental line; settings: STAT1 high-expressing cells / parental cell line, 3 to 4 days
Procedure: as §1, §2, §3, §4, §5, §6, §7, §8, §9, §10, §11, §12, §13, §15

[8] = test system: NIH3T3 cells overexpressing v-src; experiment: MTT cell viability, v-src overexpressing cells vs parental line; settings: v-src high-expressing cells / parental cell line, 3 to 4 days
Procedure: as §1, §2, §3, §4, §5, §6, §7, §8, §9, §10, §11, §12, §13, §14

[9] = test system: NIH3T3 cells overexpressing caspase-2; experiment: MTT cell viability, caspase-2 overexpressing cells vs parental line; settings: caspase-2 high-expressing cells / parental cell line, 3 to 4 days
Procedure: as §1, §2, §3, §4, §5, §6, §7, §8, §9, §10, §11, §12, §13, §14

[10] = test system: NIH3T3 cells overexpressing TK; experiment: MTT cell viability, TK overexpressing cells vs parental line; settings: TK high-expressing cells / parental cell line, 3 to 4 days
Procedure: as §1, §2, §3, §4, §5, §6, §7, §8, §9, §10, §11, §12, §13, §14

[11] = test system: NIH3T3 cells overexpressing p33/ING1; experiment: MTT cell viability, p33/ING1 overexpressing cells vs parental line; settings: p33/ING1 high-expressing cells / parental cell line, 3 to 4 days
Procedure: as §1, §2, §3, §4, §5, §6, §7, §8, §9, §10, §11, §12, §13, §14

[12] = test system: NIH3T3 cells overexpressing HNF4; experiment: MTT cell viability, HNF4 overexpressing cells vs parental line; settings: HNF4 high-expressing cells / parental cell line, 3 to 4 days
Procedure: as §1, §2, §3, §4, §5, §6, §7, §8, §9, §10, §11, §12, §13, §15

[13] = test system: NIH3T3 cells overexpressing Ki-ras; experiment: MTT cell viability, Ki-ras overexpressing cells vs parental line; settings: Ki-ras high-expressing cells / parental cell line, 3 to 4 days
Procedure: as §1, §2, §3, §4, §5, §6, §7, §8, §9, §10, §11, §12, §13, §14

[14] = test system: NIH3T3 cells overexpressing calpastatin; experiment: MTT cell viability, calpastatin overexpressing cells vs parental line; settings: calpastatin high-expressing cells / parental cell line, 3 to 4 days
Procedure: as §1, §2, §3, §4, §5, §6, §7, §8, §9, §10, §11, §12, §13, §14

[15] = test system: NIH3T3 cells overexpressing HNF1; experiment: MTT cell viability, HNF1 overexpressing cells vs parental line; settings: HNF1 high-expressing cells / parental cell line, 3 to 4 days
Procedure: as §1, §2, §3, §4, §5, §6, §7, §8, §9, §10, §11, §12, §13, §15

[16] = test system: NIH3T3 cells overexpressing Regucalcin; experiment: MTT cell viability, Regucalcin overexpressing cells vs parental line; settings: Regucalcin high-expressing cells / parental cell line, 3 to 4 days
Procedure: as §1, §2, §3, §4, §5, §6, §7, §8, §9, §10, §11, §12, §13, §14

[17] = test system: NIH3T3 cells overexpressing Bax; experiment: MTT cell viability, Bax overexpressing cells vs parental line; settings: 3 to 4 days
Procedure: as §1, §2, §3, §4, §5, §6, §7, §8, §9, §10, §11, §12, §13, §15

[18] = test system: NIH3T3 cells overexpressing cystatin E; experiment: MTT cell viability, cystatin E overexpressing cells vs parental line; settings: cystatin E high-expressing cells / parental cell line, 3 to 4 days
Procedure: as §1, §2, §3, §4, §5, §6, §7, §8, §9, §10, §11, §12, §13, §14

[19] = test system: NIH3T3 cells overexpressing p38-DN; experiment: MTT cell viability, p38-DN overexpressing cells vs parental line; settings: p38-DN high-expressing cells / parental cell line, 3 to 4 days
Procedure: as §1, §2, §3, §4, §5, §6, §7, §8, §9, §10, §11, §12, §13, §15

[20] = test system: NIH3T3 cells overexpressing caspase-1; experiment: MTT cell viability, caspase-1 overexpressing cells vs parental line; settings: caspase-1 high-expressing cells / parental cell line, 3 to 4 days
Procedure: as §1, §2, §3, §4, §5, §6, §7, §8, §9, §10, §11, §12, §13, §15

[21] = Bax (first of two Bax lines) high-expressing cells / parental cell line
[22] = Bax (second of two Bax lines) high-expressing cells / parental cell line

SMILES | logarithmic value of ratio of IC40 values [1] | logarithmic value of ratio of IC40 values [2] | logarithmic value of ratio of IC40 values [3] | logarithmic value of ratio of IC40 values [4] | logarithmic value of ratio of IC40 values [5] | logarithmic value of ratio of IC40 values [6] | logarithmic value of ratio of IC40 values [7] | logarithmic value of ratio of IC40 values [8] | logarithmic value of ratio of IC40 values [9] | logarithmic value of ratio of IC40 values [10] | logarithmic value of ratio of IC40 values [11] | logarithmic value of ratio of IC40 values [12] | logarithmic value of ratio of IC40 values [13] | logarithmic value of ratio of IC40 values [14] | logarithmic value of ratio of IC40 values [15] | logarithmic value of ratio of IC40 values [16] | logarithmic value of ratio of IC40 values [17, 21] | logarithmic value of ratio of IC40 values [18] | logarithmic value of ratio of IC40 values [19] | logarithmic value of ratio of IC40 values [20] | other results
Nc1nc2nc[nH]c2c(=S)[nH]1 [6-TG, 6-thioguanine] | 0.45 | 0.14 | 0.38 | 0.22 | −0.12 | 0.00 | 0.20 | 0.00 | 0.18 | −0.17 | 0.46 | 0.00 | −0.30 | −0.25 | 0.46 | 0.20 | 0.36 | 0.00 | – | – | logarithmic value of ratio of IC40 values [17, 22]: −0.05
CNc1ccc2oc(C[C@H]3O[C@@]4(CC[C@H]3C)O[C@H]([C@H](C)C(=O)c3ccc[nH]3)[C@H](C)C[C@H]4C)nc2c1C(=O)O [A23187] | −0.12 | −0.36 | 0.22 | 0.31 | −0.07 | 0.00 | 0.31 | −0.19 | 0.48 | 0.00 | 0.26 | 0.19 | 0.06 | −0.12 | 0.35 | 0.03 | 0.00 | 0.22 | −0.12 | −0.22 | logarithmic value of ratio of IC40 values [17, 22]: −0.09
O=CN/C=C/c1cc(O)ccc1O [Erbstatin, erbstatin] | 0.33 | 0.06 | 0.14 | – | −0.05 | 0.14 | 0.04 | −0.05 | −0.07 | 0.05 | 0.11 | 2.00 | 0.04 | −0.2 | 0.391 | 0.00 | 0.27 | −0.06 | 0.06 | −0.22 | logarithmic value of ratio of IC40 values [17, 22]: 0.04
CN(C)CCCn1cc(C2=C(c3c[nH]c4ccccc34)C(=O)NC2=O)c2ccccc21 [GF109203X] | 0.46 | 0.00 | 0.16 | 0.00 | −0.40 | 0.04 | 0.41 | −0.29 | 0.92 | 0.00 | −0.28 | 0.40 | −0.40 | – | 0.345 | −0.05 | 0.22 | 0.27 | 0.58 | 0.23 | logarithmic value of ratio of IC40 values [17, 22]: 0.27
CN[C@@H]1C[C@H]2O[C@@](C)([C@@H]1OC)n1c3ccccc3c3c4c(c5c6ccccc6n2c5c31)C(=O)NC4 [Staurosporine] | 0.08 | −0.15 | 0.19 | 0.24 | 0.04 | 0.12 | – | −0.05 | 0.18 | 0.46 | 0.62 | 0.04 | 0.38 | 0.04 | – | −0.09 | −0.22 | 0.40 | −0.05 | 0.22 | –
CC(C)(C)C(=O)Oc1ccc(S(=O)(=O)Nc2ccccc2C(=O)NCC(=O)O)cc1 [compound 5046] | −0.04 | −0.06 | 0.12 | 0.36 | 0.80 | – | 0.05 | 0.51 | 0.51 | −0.24 | −0.25 | – | 0.51 | −0.1 | 0.05 | −0.38 | −0.07 | 0.36 | −0.04 | 0.40 | –
